“Also recorded” adds a separate entry of the source. Values belong to the compound of their own block, whether it stands above or below them. *1 amine or outer side, *2 acyl side, *3 side chain or, on linkers, in order; H or OH if unused. Where a SMILES comes first, the peptide text is derived from it. [ ]: non-standard residue; d: D form. Suc = O=C(CCC(=O)[*:2])[*:1]; NMeV = CN[C@H](C(=O)O)C(C)C
Legend:
zfTac3rb [1] = test: Receptor transactivation assay, SRE-Luc reporter (PKC activation), COS-7 cells expressing zfTac3rb; format: cell-based, zebrafish; settings: mean ± SEM
Procedure: (§1) In order to study the signaling pathways of the novel zebrafish NKBs, the entire coding regions of zftac3ra (denoted by SEQ ID NO:6) or zftac3rb (denoted by SEQ ID NO:7), or the cDNA clone for human NK3R (obtained from the Missouri S&T cDNA Resource Center, were inserted into pcDNA3.1 (Invitrogen). The luciferase assay was conducted according to Biran et al., 2008 [4] COS-7 cells were grown in DMEM supplemented with 10% FBS, 1% glutamine, 100 U/ml penicillin, and […] streptomycin (Biological Industries) under 5% CO2 until confluent. Cotransfection of either pc-zftac3ra, pc-zftac3rb or pc-Htac3r (at 3 μg/plate), a reporter plasmid (at 2 μg/plate), and pCMV-β-galactosidase (at 1 μg/plate) was carried out with FuGENE 6.0 reagent (Roche). The cells were serum starved for 36 h, stimulated with vehicle or various concentrations of either human (Sigma) or zebrafish NKBs for 6 h, and then harvested and analyzed. Lysates prepared from the harvested cells were assayed for both luciferase activity and β-galactosidase activity, which was used as an internal standard to normalize the luciferase activity directed by the test plasmid. Transfection experiments were performed in triplicate with three independently isolated sets. Protein structure prediction of zebrafish NKBa, NKBb or NKF were performed on I-Tasser servers.
(§2) The response, binding selectivity and signal transduction pathways of the novel tachykinin receptors to their agonists were evaluated by functional expression analysis, using COS-7 cells.
(§3) The NKB analogues (i.e. the NKBa-analog, NKBb-analog and NKF-analog, as denoted by SEQ ID NO. 44-46) were first analyzed in comparison to their native forms in a transactivation assay, using reporter genes for specific signal transduction pathways. To validate the specificity of the serum-responsive element (SRE)-Luc and cAMP-responsive element (CRE)-Luc reporter systems, specific activators for PLC/PKC and AC/PKA signaling pathways were used in control experiments.
(§4) Thus, the ability of the three novel piscine peptides (namely, NKBa, NKBb and NKF, denoted by SEQ ID NO.40, 41 and 42), as well as the ability of the three analogous agonistic peptides, namely, NKBa-analog, NKBb-analog and NKF-analog, to differentially activate the different tac3 receptors, using SRE as a reporter gene that follows PKC activation and CRE as a reporter gene for the PKA pathway, was tested. Human NK3R (human NKB receptor) and human NKB served as controls.

[2] = biological target: T1, NKB receptors (human NKBR, zebrafish Tac3ra, Tac3rb) (Homo sapiens, UniProt P29371); test: Receptor transactivation assay, statements in words across SRE-Luc and CRE-Luc reporters and receptors; format: cell-based; settings: human NKBR (huNK3R), in both signal transduction systems (SRE-Luc and CRE-Luc)
T1 construct: expressed in transfected cells; host or cells: COS-7
T1 sequence (P29371 1-465): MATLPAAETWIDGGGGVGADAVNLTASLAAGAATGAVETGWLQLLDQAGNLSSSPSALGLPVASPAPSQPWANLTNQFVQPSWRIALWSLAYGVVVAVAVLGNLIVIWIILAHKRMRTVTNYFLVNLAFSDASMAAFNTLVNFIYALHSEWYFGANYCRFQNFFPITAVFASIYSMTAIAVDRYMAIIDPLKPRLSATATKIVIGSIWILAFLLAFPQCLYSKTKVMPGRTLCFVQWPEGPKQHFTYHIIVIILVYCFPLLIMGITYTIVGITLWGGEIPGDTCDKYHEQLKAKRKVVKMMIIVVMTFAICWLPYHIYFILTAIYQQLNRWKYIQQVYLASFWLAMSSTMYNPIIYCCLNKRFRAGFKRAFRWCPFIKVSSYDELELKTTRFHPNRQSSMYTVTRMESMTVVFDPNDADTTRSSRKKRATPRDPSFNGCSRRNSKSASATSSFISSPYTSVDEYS
Procedure: as §1, §2, §4

[3] = system: NKB receptors (human NKBR, zebrafish Tac3ra, Tac3rb); test: as above; format: cell-based
Procedure: as §1, §2, §4

huNK3R = biological target: T2, huNK3R (Homo sapiens, UniProt P29371); test: Receptor transactivation assay, SRE-Luc reporter (PKC activation), COS-7 cells expressing human NK3R; format: cell-based
T2 construct: host or cells: COS-7
T2 sequence (P29371 1-465): T1 sequence (P29371 1-465)
Procedure: In order to study the signaling pathways of the novel zebrafish NKBs, the entire coding regions of zftac3ra (denoted by SEQ ID NO:6) or zftac3rb (denoted by SEQ ID NO:7), or the cDNA clone for human NK3R (obtained from the Missouri S&T cDNA Resource Center, were inserted into pcDNA3.1 (Invitrogen). The luciferase assay was conducted according to Biran et al., 2008 [4] COS-7 cells were grown in DMEM supplemented with 10% FBS, 1% glutamine, 100 U/ml penicillin, and 100 mg/ml streptomycin (Biological Industries) under 5% CO2 until confluent. Cotransfection of either pc-zftac3ra, pc-zftac3rb or pc-Htac3r (at 3 μg/plate), a reporter plasmid (at 2 μg/plate), and pCMV-β-galactosidase (at 1 μg/plate) was carried out with FuGENE 6.0 reagent (Roche). The cells were serum starved for 36 h, stimulated with vehicle or various concentrations of either human (Sigma) or zebrafish NKBs for 6 h, and then harvested and analyzed. Lysates prepared from the harvested cells were assayed for both luciferase activity and β-galactosidase activity, which was used as an internal standard to normalize the luciferase activity directed by the test plasmid. Transfection experiments were performed in triplicate with three independently isolated sets.

zfTac3ra [4] = test: Receptor transactivation assay, SRE-Luc reporter (PKC activation), COS-7 cells expressing zfTac3ra; format: cell-based, zebrafish; settings: mean ± SEM
Procedure: as §1, §2, §3, §4

[5] = system: sexually mature female zebrafish; test: In vivo effect of NKBs in zebrafish: LH secretion after intraperitoneal injection; settings: single intraperitoneal injection, 20 pmol/g body weight, sexually mature female zebrafish
Procedure: In vivo studies involved administering NKBa, NKBb or NKF and the analogues thereof, denoted by SEQ ID NO. 40-42 and 44-46, respectively to immature fish (20 fish/treatment). The circulating levels of E2, 11KT, LH and FSH were determined prior to hormonal manipulations, in order to confirm that these fish were indeed sexually immature. The fish were injected intramuscularly (i.m.) or intraperitonealy (i.p.) at various doses. Adult female zebra fish were injected intraperitoneally with 20 pmol/g body weight. Control fish were injected with saline. Plasma samples were collected at time 0, and specific times after the administration of the peptide/s, to determine the levels of E2, 11KT, LH and FSH.
To further characterize the role of the NKB/NKBR system in fish reproduction the in vivo biological function of zebrafish NKB peptides was next examined.

zfTac3ra [6] = test: Receptor transactivation assay, CRE-Luc reporter (PKA activation), COS-7 cells expressing zfTac3ra; format: cell-based, zebrafish; settings: mean ± SEM
Procedure: as §1, §2, §3, §4

zfTac3rb [7] = test: Receptor transactivation assay, CRE-Luc reporter (PKA activation), COS-7 cells expressing zfTac3rb; format: cell-based, zebrafish; settings: mean ± SEM
Procedure: as §1, §2, §3, §4

Tilapia pituitary cells = test: Gonadotropin release from tilapia pituitary dispersed cells; format: cell-based; settings: 10 nM, 4 hr
Procedure: Tilapia pituitary cells were subjected to enzymatic dispersion. Pituitary cells were stimulated with 10 nM of the NKBa or NKF analogue, denoted by SEQ ID NO.44 and SEQ ID NO.46, respectively, for 4 hr, when the medium was collected. […] Stimulation of tilapia pituitary cells with GnRH at [10 nM] was used as a control.

Mature female carp = test: Gonadotropin release from mature carp in vivo (LH by ELISA); settings: mature female carp just before spawning, injected 20 μg/kg body weight; listed as NKBa analogue
Procedure: Mature female carp, just before spawning, were injected with NKBa, NKBb and NKF analogues, denoted by SEQ ID NO.44, SEQ ID NO.45 and SEQ ID NO.46, respectively (20 μg/kg body weight). LH levels was measured by specific ELISA, according to Aizen et al. 2012 [33].

Juvenile Tilapia = test: Gonadotropin release in vivo from juvenile tilapia (plasma LH and FSH by ELISA); design: species or system Tilapia (Oreochromis niloticus); settings: Juvenile Tilapia, injected at 0.5 or 5 μg/Kg BW
Procedure: Tilapia females (two-months old) were injected with the NKBa analogue denoted by SEQ ID NO.44 or the NKF analogue denoted by SEQ ID NO.46 at 0.5 or 5 μg/kg body weight (BW). Blood was withdrawn from the caudal vein and plasma Luteinizing hormone (LH) and Follicle-stimulating hormone (FSH) levels were measured using a homologous sensitive enzyme-linked immunosorbent assay (ELISA), as described by Aizen et al. 2007 [33].

[8] = Table 7 (native peptides and analogues), PKC activation, read-out: EC50 using SRE, zfTac3rb
[9] = Table 7 (native peptides and analogues), PKC activation, read-out: EC50 using SRE, zfTac3ra
[10] = Table 6 (native peptides and analogues), PKA activation, read-out: EC50 using CRE-Luc, zfTac3ra
[11] = Table 6 (native peptides and analogues), PKA activation, read-out: EC50 using CRE-Luc, zfTac3rb

EC50 (zfTac3rb [1]; Table 5, COS-7 cells, SRE-Luc follows PKC activation, read-out: EC50 SRE-Luc zfTac3rb): 33.8 ± 14.7 nM
EC50 (zfTac3rb [1]; Table 7 (native peptides and analogues), PKC activation, listed as NKBb, read-out: EC50 using SRE, zfTac3rb): 15.3 nM
EC50 (zfTac3rb [1]; [8]): 15.3 ± 18.3 nM
potency [2]: relatively low potency
luciferase activity ([3]; both SRE-Luc and CRE-Luc, both signal transduction pathways): less effective than the other forms
activation of the piscine NKB receptors ([3]; zebrafish tac3ra and tac3rb, FIGS. 11A, B, D, E): lowest effect
SRE-driven luciferase activity, response (huNK3R; COS-7 cells transiently transfected with human NK3R): lowest effect
EC50 (huNK3R; Table 5, COS-7 cells, SRE-Luc follows PKC activation, mean ± SEM): 204 ± 139 nM
EC50 (zfTac3ra [4]; Table 5, COS-7 cells, SRE-Luc follows PKC activation, read-out: EC50 SRE-Luc zfTac3ra): 8.96 ± 1.19 nM
EC50 (zfTac3ra [4]; [9]): 6.06 nM
EC50 (zfTac3ra [6]; Table 5, COS-7 cells, CRE-Luc follows PKA activation, read-out: EC50 CRE-Luc zfTac3ra): 237 ± 134 nM
EC50 (zfTac3ra [6]; Table 6 (native peptides and analogues), PKA activation, listed as NKBb, read-out: EC50 using CRE-Luc, zfTac3ra): 99.6 nM
EC50 (zfTac3ra [6]; [10]): 99.6 ± 12.9 nM
EC50 (zfTac3rb [7]; Table 5, COS-7 cells, CRE-Luc follows PKA activation, read-out: EC50 CRE-Luc zfTac3rb): 519 ± 160 nM
EC50 (zfTac3rb [7]; [11]): 191 nM
Structure (SMILES): CC[C@H](C)[C@H](NC(=O)CNC(=O)[C@@H](NC(=O)[C@@H](N)CO)[C@@H](C)O)C(=O)N[C@@H](CC(N)=O)C(=O)N[C@@H](CCCNC(=N)N)C(=O)N[C@@H](CCC(=O)O)C(=O)N[C@@H](C)C(=O)N[C@@H](Cc1c[nH]cn1)C(=O)N[C@@H](CC(C)C)C(=O)N1CCC[C@H]1C(=O)N[C@@H](Cc1ccccc1)C(=O)N[C@@H](CCCNC(=N)N)C(=O)N1CCC[C@H]1C(=O)N[C@@H](CC(N)=O)C(=O)N[C@@H](CCSC)C(=O)N[C@@H](CC(N)=O)C(=O)N[C@@H](CC(=O)O)C(=O)N[C@H](C(=O)N[C@@H](Cc1ccccc1)C(=O)N[C@H](C(=O)NCC(=O)N[C@@H](CC(C)C)C(=O)N[C@@H](CC(C)C)C(N)=O)C(C)C)[C@@H](C)CC [zfNKBb] (H-STGINREAHLPFRPNMNDIFVGLL-NH2; N-terminus assumed)
LH secretion [5]: significant increase; also recorded: less pronounced

EC50 (zfTac3rb [1]; [8]): 0.29 nM
EC50 (zfTac3ra [4]; [9]): 0.15 ± 0.19 nM
EC50 (zfTac3ra [6]; [10]): 6.94 ± 1.28 nM
EC50 (zfTac3rb [7]; Table 6 (native peptides and analogues), PKA activation, listed as NKBa-analog, read-out: EC50 using CRE-Luc, zfTac3rb): 11.9 nM
EC50 (zfTac3rb [7]; [11]): 11.9 ± 16.9 nM
Structure (SMILES): CC[C@H](C)[C@H](NC(=O)[C@H](CC(=O)O)NC(=O)CCC(=O)O)C(=O)N[C@@H](Cc1ccccc1)C(=O)N(C)[C@H](C(=O)NCC(=O)N[C@@H](CC(C)C)C(=O)N[C@@H](CCSC)C(N)=O)C(C)C [zfNKBa-analog, Succ-Asp-Ile-Phe-N(Me)Val-Gly-Leu-Met-NH2] (Suc-DIF[NMeV]GLM-NH2)
release of FSH from tilapia pituitary cells (Tilapia pituitary cells): significantly increased
LH level (Mature female carp): significant elevation; also recorded: increased the level of LH significantly
FSH secretion (Juvenile Tilapia): significant increase
LH secretion (Juvenile Tilapia): significant increase
